In ChEMBL document CHEMBL5291721, “A preclinical secondary pharmacology resource illuminates target-adverse drug reaction associations of marketed drugs” (Nat Commun, 2023):

Tests used:
Adenosine receptor A1 = molecular target: T1, Adenosine receptor A1 (Homo sapiens, UniProt P30542)
T1 sequence (P30542 whole entry): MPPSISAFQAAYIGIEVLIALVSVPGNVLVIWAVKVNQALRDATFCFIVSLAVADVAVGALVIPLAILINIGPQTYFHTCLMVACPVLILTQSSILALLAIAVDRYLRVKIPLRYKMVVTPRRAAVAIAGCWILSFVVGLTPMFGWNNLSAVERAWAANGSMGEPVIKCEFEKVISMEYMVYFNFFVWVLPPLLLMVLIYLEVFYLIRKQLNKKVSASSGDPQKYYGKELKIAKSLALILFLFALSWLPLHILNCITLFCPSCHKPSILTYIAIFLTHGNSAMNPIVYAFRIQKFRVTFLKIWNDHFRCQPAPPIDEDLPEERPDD

Vasopressin V2 receptor = Vasopressin V2 receptor (Homo sapiens, UniProt P30518)
B2 bradykinin receptor = molecular target: T2, B2 bradykinin receptor (Homo sapiens, UniProt P30411)
T2 sequence (P30411 whole entry): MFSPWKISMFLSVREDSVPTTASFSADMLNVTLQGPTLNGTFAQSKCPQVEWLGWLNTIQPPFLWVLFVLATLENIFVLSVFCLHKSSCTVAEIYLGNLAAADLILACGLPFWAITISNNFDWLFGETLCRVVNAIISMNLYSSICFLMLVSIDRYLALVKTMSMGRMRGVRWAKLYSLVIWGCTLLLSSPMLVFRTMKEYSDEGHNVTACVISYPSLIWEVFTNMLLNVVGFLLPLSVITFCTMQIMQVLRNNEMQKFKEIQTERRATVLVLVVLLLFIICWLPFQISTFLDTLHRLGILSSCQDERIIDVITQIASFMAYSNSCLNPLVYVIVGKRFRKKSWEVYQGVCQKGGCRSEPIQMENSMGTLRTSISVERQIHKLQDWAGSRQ

[1] = molecular target: Voltage-dependent L-type calcium channel subunit alpha-1C (Rattus norvegicus, UniProt P22002); assay type: functional
Mu-type opioid receptor = Mu-type opioid receptor (Homo sapiens, UniProt P35372); assay: biochemical; assay type: functional
Estrogen receptor = molecular target: T3, Estrogen receptor (Homo sapiens, UniProt P03372)
T3 sequence (P03372 whole entry): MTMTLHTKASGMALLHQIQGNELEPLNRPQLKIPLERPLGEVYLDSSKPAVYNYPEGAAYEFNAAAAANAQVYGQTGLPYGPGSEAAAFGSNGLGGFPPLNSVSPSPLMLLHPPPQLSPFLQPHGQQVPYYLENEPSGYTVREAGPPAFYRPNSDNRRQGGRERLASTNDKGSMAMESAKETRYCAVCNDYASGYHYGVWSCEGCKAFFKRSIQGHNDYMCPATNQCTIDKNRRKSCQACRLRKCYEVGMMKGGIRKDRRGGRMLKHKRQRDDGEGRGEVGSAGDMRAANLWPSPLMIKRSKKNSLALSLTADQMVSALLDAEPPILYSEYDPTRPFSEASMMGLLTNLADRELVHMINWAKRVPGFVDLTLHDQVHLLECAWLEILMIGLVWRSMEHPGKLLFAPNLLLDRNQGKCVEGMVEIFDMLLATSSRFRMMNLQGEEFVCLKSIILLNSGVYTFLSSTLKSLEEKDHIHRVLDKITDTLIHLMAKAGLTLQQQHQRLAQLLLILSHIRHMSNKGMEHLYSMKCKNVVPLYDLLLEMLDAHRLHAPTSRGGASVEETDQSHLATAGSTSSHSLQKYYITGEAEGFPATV

[2] = molecular target: T4, Equilibrative nucleoside transporter 1 (Homo sapiens, UniProt Q99808)
T4 sequence (Q99808 whole entry): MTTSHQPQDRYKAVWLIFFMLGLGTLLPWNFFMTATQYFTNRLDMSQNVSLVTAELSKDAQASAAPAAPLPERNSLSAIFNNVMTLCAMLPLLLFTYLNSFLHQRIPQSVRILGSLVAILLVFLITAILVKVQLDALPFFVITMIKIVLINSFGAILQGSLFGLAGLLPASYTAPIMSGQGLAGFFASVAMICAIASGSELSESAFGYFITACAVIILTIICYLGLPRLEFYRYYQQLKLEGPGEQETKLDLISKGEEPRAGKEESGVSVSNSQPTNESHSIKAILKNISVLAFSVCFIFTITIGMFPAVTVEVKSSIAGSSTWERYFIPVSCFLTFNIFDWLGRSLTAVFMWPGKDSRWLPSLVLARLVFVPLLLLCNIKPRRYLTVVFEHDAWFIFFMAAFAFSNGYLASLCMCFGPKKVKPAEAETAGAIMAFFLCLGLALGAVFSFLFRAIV

[3] = molecular target: Sodium-dependent serotonin transporter (Homo sapiens, UniProt P31645)
Progesterone receptor = molecular target: T5, Progesterone receptor (Homo sapiens, UniProt P06401); assay type: functional
T5 sequence (P06401 whole entry): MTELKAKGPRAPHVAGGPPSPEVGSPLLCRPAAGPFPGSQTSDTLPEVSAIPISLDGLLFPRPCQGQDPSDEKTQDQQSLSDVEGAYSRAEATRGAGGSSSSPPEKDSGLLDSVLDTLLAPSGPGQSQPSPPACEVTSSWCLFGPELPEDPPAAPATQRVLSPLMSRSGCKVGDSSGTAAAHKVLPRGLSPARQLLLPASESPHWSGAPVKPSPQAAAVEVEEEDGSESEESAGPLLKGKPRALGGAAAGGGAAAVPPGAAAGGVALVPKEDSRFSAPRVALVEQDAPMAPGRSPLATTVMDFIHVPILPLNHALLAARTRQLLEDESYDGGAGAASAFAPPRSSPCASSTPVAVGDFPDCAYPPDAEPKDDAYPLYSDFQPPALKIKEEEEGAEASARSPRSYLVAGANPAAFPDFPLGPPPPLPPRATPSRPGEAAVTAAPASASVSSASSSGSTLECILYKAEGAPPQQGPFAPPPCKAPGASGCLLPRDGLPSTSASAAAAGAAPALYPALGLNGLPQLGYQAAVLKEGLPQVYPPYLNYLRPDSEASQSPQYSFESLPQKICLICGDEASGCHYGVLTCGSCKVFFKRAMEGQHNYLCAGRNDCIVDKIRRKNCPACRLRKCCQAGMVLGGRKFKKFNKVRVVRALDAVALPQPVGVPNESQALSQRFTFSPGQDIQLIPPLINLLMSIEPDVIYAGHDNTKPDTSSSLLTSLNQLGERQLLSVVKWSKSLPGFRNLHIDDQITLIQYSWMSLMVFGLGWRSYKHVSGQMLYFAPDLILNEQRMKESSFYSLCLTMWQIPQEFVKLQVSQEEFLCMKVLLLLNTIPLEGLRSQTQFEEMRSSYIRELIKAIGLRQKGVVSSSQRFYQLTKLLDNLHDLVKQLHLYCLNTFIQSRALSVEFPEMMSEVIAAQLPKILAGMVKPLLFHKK
Also: assay procedure not described here.

Sequence of Vasopressin V2 receptor (P30518 whole entry): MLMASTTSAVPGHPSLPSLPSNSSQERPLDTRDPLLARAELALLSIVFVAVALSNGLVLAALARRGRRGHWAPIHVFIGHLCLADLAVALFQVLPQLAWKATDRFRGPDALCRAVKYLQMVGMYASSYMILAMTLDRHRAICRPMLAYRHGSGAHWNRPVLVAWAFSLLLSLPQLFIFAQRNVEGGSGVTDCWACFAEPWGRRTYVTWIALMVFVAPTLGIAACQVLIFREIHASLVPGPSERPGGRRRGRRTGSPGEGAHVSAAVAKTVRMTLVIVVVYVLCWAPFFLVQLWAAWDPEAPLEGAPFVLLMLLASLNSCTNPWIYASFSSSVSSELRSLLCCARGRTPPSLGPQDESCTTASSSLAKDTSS
Sequence of Voltage-dependent L-type calcium channel subunit alpha-1C (P22002 whole entry): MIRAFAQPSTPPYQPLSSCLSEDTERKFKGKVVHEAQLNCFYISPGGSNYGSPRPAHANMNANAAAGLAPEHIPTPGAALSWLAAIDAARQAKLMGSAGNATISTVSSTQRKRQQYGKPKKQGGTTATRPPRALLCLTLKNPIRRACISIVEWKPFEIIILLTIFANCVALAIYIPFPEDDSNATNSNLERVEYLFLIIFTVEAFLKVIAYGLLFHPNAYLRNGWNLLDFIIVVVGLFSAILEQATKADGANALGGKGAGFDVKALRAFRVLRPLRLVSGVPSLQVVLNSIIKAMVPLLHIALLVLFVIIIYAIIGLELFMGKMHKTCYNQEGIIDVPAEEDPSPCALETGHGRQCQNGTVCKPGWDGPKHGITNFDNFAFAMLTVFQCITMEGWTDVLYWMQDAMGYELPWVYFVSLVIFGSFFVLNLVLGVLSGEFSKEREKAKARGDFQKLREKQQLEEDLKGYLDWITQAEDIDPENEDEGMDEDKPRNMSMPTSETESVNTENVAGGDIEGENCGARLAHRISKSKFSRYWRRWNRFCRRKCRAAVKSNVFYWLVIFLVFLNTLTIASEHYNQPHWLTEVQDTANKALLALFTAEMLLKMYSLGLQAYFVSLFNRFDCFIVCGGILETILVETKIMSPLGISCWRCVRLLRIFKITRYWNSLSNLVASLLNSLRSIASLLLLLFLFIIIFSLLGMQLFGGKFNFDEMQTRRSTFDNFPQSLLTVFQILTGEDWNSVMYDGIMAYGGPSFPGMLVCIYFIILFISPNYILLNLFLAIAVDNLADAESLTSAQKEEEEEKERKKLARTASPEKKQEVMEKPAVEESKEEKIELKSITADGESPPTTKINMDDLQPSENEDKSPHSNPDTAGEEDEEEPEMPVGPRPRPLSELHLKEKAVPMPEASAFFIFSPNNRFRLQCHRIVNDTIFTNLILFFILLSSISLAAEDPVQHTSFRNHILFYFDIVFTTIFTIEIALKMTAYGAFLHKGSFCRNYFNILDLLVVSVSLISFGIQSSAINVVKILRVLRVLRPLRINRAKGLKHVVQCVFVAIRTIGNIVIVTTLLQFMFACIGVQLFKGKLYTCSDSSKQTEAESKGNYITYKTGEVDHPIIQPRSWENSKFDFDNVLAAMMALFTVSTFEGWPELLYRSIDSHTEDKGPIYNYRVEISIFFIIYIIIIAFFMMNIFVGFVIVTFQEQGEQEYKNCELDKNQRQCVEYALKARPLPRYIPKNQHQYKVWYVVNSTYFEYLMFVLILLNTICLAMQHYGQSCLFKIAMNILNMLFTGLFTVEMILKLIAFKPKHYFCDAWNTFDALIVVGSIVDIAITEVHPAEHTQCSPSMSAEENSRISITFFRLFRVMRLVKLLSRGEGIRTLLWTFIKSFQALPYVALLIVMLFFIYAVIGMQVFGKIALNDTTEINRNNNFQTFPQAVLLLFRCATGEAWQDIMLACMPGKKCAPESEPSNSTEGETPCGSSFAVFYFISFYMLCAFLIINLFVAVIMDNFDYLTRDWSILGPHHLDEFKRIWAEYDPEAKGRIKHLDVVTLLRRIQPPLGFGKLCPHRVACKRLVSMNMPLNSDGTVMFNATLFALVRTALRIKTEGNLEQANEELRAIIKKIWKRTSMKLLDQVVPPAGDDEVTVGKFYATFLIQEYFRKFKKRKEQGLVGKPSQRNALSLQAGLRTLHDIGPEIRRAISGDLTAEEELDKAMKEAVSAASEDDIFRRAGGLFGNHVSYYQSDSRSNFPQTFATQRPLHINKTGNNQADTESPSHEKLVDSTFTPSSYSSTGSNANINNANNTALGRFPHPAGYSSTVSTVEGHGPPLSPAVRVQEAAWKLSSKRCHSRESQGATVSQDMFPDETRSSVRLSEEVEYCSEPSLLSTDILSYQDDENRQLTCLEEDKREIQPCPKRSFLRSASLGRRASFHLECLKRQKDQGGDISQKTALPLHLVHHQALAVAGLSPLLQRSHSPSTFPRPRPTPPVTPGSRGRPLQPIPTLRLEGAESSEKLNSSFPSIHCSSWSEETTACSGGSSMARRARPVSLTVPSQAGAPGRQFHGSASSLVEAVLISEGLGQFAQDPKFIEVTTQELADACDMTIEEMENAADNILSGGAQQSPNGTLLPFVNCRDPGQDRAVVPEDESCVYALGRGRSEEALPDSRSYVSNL
Sequence of Sodium-dependent serotonin transporter (P31645 whole entry): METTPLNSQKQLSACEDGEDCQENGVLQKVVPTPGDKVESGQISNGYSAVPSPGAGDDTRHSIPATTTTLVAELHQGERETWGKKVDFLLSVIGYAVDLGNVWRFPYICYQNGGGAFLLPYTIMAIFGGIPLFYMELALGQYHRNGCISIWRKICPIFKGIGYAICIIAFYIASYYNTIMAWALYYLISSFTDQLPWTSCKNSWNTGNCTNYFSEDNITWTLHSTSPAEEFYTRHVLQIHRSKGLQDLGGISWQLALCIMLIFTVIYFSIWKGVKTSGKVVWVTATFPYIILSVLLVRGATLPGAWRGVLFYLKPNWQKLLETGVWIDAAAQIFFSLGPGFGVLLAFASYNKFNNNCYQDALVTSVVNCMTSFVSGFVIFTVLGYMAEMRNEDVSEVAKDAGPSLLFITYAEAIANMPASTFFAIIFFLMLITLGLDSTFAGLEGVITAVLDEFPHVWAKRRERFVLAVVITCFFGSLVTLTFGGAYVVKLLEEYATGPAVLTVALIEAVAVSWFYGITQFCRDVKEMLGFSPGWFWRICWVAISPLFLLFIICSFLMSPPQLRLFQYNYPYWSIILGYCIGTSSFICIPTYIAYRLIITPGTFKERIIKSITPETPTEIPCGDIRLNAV
Sequence of Mu-type opioid receptor (P35372 whole entry): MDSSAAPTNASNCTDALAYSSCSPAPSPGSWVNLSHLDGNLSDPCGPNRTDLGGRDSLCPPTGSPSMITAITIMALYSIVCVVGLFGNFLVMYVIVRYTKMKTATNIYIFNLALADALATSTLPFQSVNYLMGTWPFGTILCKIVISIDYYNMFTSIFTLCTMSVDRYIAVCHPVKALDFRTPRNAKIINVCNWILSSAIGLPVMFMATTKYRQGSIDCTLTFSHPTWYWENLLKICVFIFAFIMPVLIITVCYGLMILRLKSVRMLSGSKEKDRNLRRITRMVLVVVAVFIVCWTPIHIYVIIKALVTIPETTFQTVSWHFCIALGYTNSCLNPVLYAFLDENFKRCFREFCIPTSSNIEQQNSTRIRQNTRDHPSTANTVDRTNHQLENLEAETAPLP

| Compound | AC50 (Adenosine receptor A1) [µM] | AC50 (Vasopressin V2 receptor) [µM] | AC50 (B2 bradykinin receptor) [µM] | AC50 [1] [µM] | AC50 (Mu-type opioid receptor) [µM] | AC50 (Estrogen receptor) [µM] | AC50 [2] [µM] | AC50 [3] [µM] | AC50 (Progesterone receptor) [µM] |
| --- | --- | --- | --- | --- | --- | --- | --- | --- | --- |
| CN(CCCN1c2ccccc2CCc2ccccc21)CC(=O)c1ccc(Cl)cc1 [LOFEPRAMINE] | > 30 | > 30 | > 10 | 2.4 | > 30 | > 30 | > 30 |  |  |
| CN(C)CCCN1c2ccccc2Sc2ccccc21 [PROMAZINE] | > 30 | > 30 | > 30 | > 10 | 2.9 |  | > 30 |  |  |
| O=C(O)CCn1c2c(c3ccccc31)C[C@H](NS(=O)(=O)c1ccc(F)cc1)CC2 [RAMATROBAN] | > 30 | > 30 | > 30 | > 10 | > 30 | > 30 | > 30 | > 30 | > 30 |
| NS(=O)(=O)c1cc(Cl)c(Cl)c(S(N)(=O)=O)c1 [DICHLORPHENAMIDE] | > 10 | > 10 | > 10 | > 10 |  |  | > 10 | > 10 | > 10 |
| O=C(Nc1ccccc1)OCC(CN1CCCCC1)OC(=O)Nc1ccccc1 (configuration not stated) [DIPERODON] | > 30 | > 30 | > 30 |  | 4.1 | > 30 | > 30 | > 10 |  |
| CN(C/C=C/c1ccccc1)Cc1cccc2ccccc12 [NAFTIFINE] | > 30 | > 30 | > 30 | > 10 |  | > 30 | > 30 |  | > 30 |
| CC(=O)N(CC(O)CO)c1c(I)c(C(=O)NCC(O)CO)c(I)c(C(=O)NCC(O)CO)c1I (configuration not stated) [IOHEXOL] | > 30 | > 30 | > 30 | > 10 |  | > 30 | > 30 | > 30 |  |
| N[C@@H](CSCC(=O)O)C(=O)O [CARBOCYSTEINE] | > 30 | > 30 | > 30 | > 30 | > 30 | > 30 | > 30 | > 30 | > 30 |
| O=P(O)(O)C(O)(Cc1cccnc1)P(=O)(O)O [RISEDRONIC ACID] | > 30 | > 30 | > 30 | > 30 | > 30 | > 30 | > 30 |  | > 30 |
| C=C1C[C@@H]2[C@H](CC[C@]3(C)C(=O)CC[C@@H]23)[C@@]2(C)C=CC(=O)C=C12 [EXEMESTANE] | > 30 | > 30 | > 30 | > 10 |  | > 30 | > 30 | > 30 |  |
| CC(C(O)c1ccc(O)cc1)N1CCC(Cc2ccccc2)CC1 (configuration not stated) [IFENPRODIL] | > 30 | > 30 | > 30 | > 30 | > 30 | > 30 |  | 0.28 | > 30 |
| CC(C)(N)Cc1ccc(Cl)cc1 [CHLORPHENTERMINE] | > 30 | > 30 | > 30 | > 10 |  | > 30 | > 30 | 4.57 |  |
| CC(=O)O[C@]1(C(C)=O)CC[C@H]2[C@@H]3C[C@H](C)C4=CC(=O)CC[C@]4(C)[C@H]3CC[C@@]21C [MEDROXYPROGESTERONE ACETATE] | > 30 | > 30 | > 30 |  |  |  | > 30 |  |  |
| NS(=O)(=O)c1cc(-c2nnn[nH]2)c(NCc2cccs2)cc1Cl [AZOSEMIDE] | > 30 | > 30 | > 30 | > 30 | > 30 | > 30 | > 30 | > 30 | > 30 |
| O=C1CCC(N2C(=O)c3ccccc3C2=O)C(=O)N1 (configuration not stated) [THALIDOMIDE] | > 30 | > 30 | > 30 | > 10 |  |  | > 30 |  |  |
| C[N+](C)(C)CC(=O)O [BETAINE] | > 30 | > 30 | > 30 | > 30 | > 30 | > 30 | > 30 | > 30 | > 30 |
| CCCC(=O)N1CCCN(c2nc(N)c3cc(OC)c(OC)cc3n2)CC1 [BUNAZOSIN] | > 30 | > 30 | > 30 |  | > 30 | > 30 | > 30 | > 30 | > 30 |
| CN(C)[C@@H]1C(O)=C(C(N)=O)C(=O)[C@@]2(O)C(O)=C3C(=O)c4c(O)ccc(Cl)c4[C@@H](O)[C@H]3C[C@@H]12 [DEMECLOCYCLINE] | > 10 | > 10 | > 10 | > 10 |  |  | > 10 | > 10 |  |
| C[N+](C)(C)CCOC(N)=O [CARBAMOYLCHOLINE] | > 10 | > 10 | > 10 | > 10 | > 30 |  | > 10 |  | > 10 |
| CS(=O)(=O)Nc1cc2occ(NC=O)c(=O)c2cc1Oc1ccccc1 [IGURATIMOD] |  |  |  |  |  |  |  | > 30 | > 30 |
| CC(C)NCC1CCc2cc(CO)c([N+](=O)[O-])cc2N1 (configuration not stated) [OXAMNIQUINE] | > 10 | > 10 | > 10 | > 10 |  | > 10 | > 30 | 39.6 | > 10 |
